Legend:
dUTPase [1] = target: T1, dUTPase (Homo sapiens, UniProt P33316); test: malachite green assay of substrate hydrolysis by purified enzyme; assay type: biochemical
T1 construct: gene DUT; human recombinant dUTPase
T1 sequence (P33316 70-252): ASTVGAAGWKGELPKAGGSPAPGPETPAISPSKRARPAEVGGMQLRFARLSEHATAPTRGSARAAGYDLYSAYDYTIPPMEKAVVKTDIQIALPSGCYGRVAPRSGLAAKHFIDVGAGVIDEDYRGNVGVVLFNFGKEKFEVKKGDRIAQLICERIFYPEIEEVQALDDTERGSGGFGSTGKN

dUTPase [2] = target: T1, dUTPase; test: malachite green activity assay with dUTP as substrate, purified recombinant enzyme; assay type: biochemical

Row | Compound | malachite green assay of substrate hydrolysis by purified enzyme (dUTPase [1]) | IC50 (dUTPase [2]) [nM]
1 | O=c1ccn([C@H]2C[C@H](O)[C@@H](COP(=O)(O)OP(=O)(O)OP(=O)(O)O)O2)c(=O)[nH]1 [dUTP] | 6.6 μM formed PPi per second per μM enzyme | –
2 | CC(NS(=O)(=O)CCCOCn1ccc(=O)[nH]c1=O)c1cccc(OC2CCCC2)c1 (stereo not shown) [compound 2] | – | 25
3 | O=c1[nH]c(=O)n([C@H]2C[C@H](O)[C@@H](COP(=O)(O)OP(=O)(O)OP(=O)(O)O)O2)cc1F [5-FdUTP] | 5.5 μM formed PPi per second per μM enzyme | –
4 | O=C(CCCn1ccc(=O)[nH]c1=O)N1CCC[C@H]1C(c1ccccc1)c1ccccc1 [compound 1] | – | 740

— PMC5410339, “dUTPase inhibition augments replication defects of 5-Fluorouracil” (Oncotarget, 2017)
